Reference: patent US8343536B2, “Biofilm-inhibiting medical products” (Cook Biotech Incorporated, priority 2007, dated 2013)

Experiments:
Type in all cases: cell-based
[1] = test system: C. albicans (ATCC #10231); assay: Anti-fungal zone-of-inhibition / growth inhibition, coated SIS discs (Example 5); settings: 100 μg/cm^2 on SIS disc, ~48 hours
Experimental: (§1) BisEDT was obtained from Microbion, Inc. as previously described. Small intestinal submucosa (SIS) was obtained and processed into 4-layer lyophilized sheets as described in Example 1. The sheets were subsequently cut into 15 mm discs (˜1.76 cm^2) using a disc punch. BisEDT was resuspended in dimethyl sulfoxide (DMSO) and diluted to appropriate concentrations for coating. Discs were coated with the BisEDT solution at a final concentration of 3.5 μg/μl using 50 μl of the solution per disc for a final concentration of 100 μg/cm^2. The discs were subsequently placed in a lyophilizer overnight to remove the DMSO solvent. A total of 6 coated discs were made—3 each for the two microorganisms investigated. These were compared against 3 uncoated controls discs cut from the same lot of SIS for each microorganism. C. albicans (ATCC #10231) and A. niger(ATCC #16404) were plated on Rose Bengal Chloramphenicol (RBC) in Petri dishes.
(§2) The experiment consisted of a total of […] (3 BisEDT 100 μg/cm^2 coated, 3 uncoated controls) for each fungus. A lawn of either C. albicans or A. niger was swabbed onto the RBC plates. Each disc was rehydrated in sterile saline for ˜5 minutes then placed approximately in the center of the plate. Plates were incubated inverted for ˜48 hours for C. albicans or 5 and 8 days for A. niger at which time pictures were taken with a digital camera. Zones-of-inhibition or growth inhibition was compared visually between groups.

A. niger(ATCC #16404) = assay: as above; settings: 100 μg/cm^2 on SIS disc
Experimental: as §1, §2

S. aureus (ATCC #25983) = assay: Zone-of-inhibition after various rehydration times of coated SIS discs (Example 3)
Experimental: BisEDT (Molar ratio 1:1.5) and BisBAL (1:1.5) (50 mg each) were obtained from Microbion, Inc. Small intestinal submucosa (SIS) was obtained and processed into 4-layer lyophilized sheets as described in Example 1. The sheets were subsequently cut into 15 mm discs (˜1.76 cm^2) using a disc punch. Bismuth thiols were resuspended in dimethyl sulfoxide (DMSO) and diluted to appropriate concentrations for coating. Discs were coated with the bismuth thiol solutions at a final concentration of 0.35 μg/μl using 50 μl of the solution per disc for a final concentration of 10 μg/cm^2. The discs were subsequently placed in a lyophilizer overnight to remove the DMSO solvent. S. aureus (ATCC #25983) was used as the bacteria for this experiment. Bacteria was grown in Tryptic Soy Broth for 16-24 hours before placing a lawn on Tryptic Soy Agar in 100 mm Petri dishes.
Thirty six samples were tested in total (2 BT*n=3→6*6 rehydration times→36). A lawn of S. aureus was swabbed onto the Tryptic Soy Agar. For the 0 rehydration time point, the bismuth thiol coated disc was placed approximately in the center of the plate and rehydrated with ˜50 μl of sterile saline. Other rehydration times were varied at 5, 10, 20, 30, or 60 minutes. For this, the samples were placed in sterile saline and a timer set for each time. At the appropriate time, samples were removed from the saline and placed approximately in the center of the plate. Plates were incubated inverted for 24 hours at which time pictures were taken with a digital camera. Zones-of-inhibition were compared visually between groups.

Substance: bismuth-1,2-ethanedithiol [BisEDT]
- Zone-of-inhibition from the disc edge [1]: ~1 mm
- Mold growth on coated disc (A. niger(ATCC #16404); 5 days): able to grow up to the disc edge but not on the BisEDT coated disc
- Mold growth on coated disc (A. niger(ATCC #16404); eight day time point): still unable to grow on the BisEDT coated discs
- Effect of rehydration time on zone-of-inhibition, visual comparison (S. aureus (ATCC #25983); 10 μg/cm^2, rehydration 0-60 minutes in sterile saline): no visual differences between the rehydration time points
- Zone-of-inhibition, visual (S. aureus (ATCC #25983); 10 μg/cm^2 on SIS disc, rehydration 0, 5, 10, 20, 30 or 60 minutes): significant effectiveness in creating a zone-of-inhibition
